Assay results reported in US12091676B2, “Method for preparing non-human primate somatic cell cloned animal” (CENTER FOR EXCELLENCE IN BRAIN SCIENCE AND INTELLIGENCE …, priority 2018, dated 2024).

Test system: cynomolgus monkey somatic cell nuclear transfer embryos
Assay: In vitro development of cynomolgus monkey somatic cell nuclear transfer embryos to blastocyst
Type: cell-based, cynomolgus monkey (Macaca fascicularis)
From the text: Oocyte denucleation: 15-20 MII stage oocytes were transferred to a glass-bottomed and oil-sealed TH3 working drop containing […], and the position of the oocyte nucleus was observed under the inverted microscope assisted by the spindle imaging system, and the oocyte was fixed with an egg-holding needle and the oocyte nucleus was located at 3 o'clock direction. The Piezo Micromainpulator System was used to drive a flat needle with a diameter of 10 microns to break the zona pellucida, and the oocyte nucleus was removed. After the whole group of oocytes were enucleated, the enucleated oocytes were transferred to HECM-9 medium.
Injection of fibroblasts into enucleated oocytes: 15-20 enucleated oocytes were transferred to an oil-sealed TH3 working drop containing […], and the oocytes were fixed with an egg holding needle, and the polar body was placed at 12 o'clock or 6 o'clock direction. The laser zona pellucida system was used for breaking the zona pellucida to form a narrow slit. An oblique needle with a diameter of 15-18 microns was used for aspirating fibroblasts and transferring the cells to HVJ-E for 10 seconds, and then the cells were removed and injected into the perivitelline space of the enucleated egg cell through the zona pellucida slit, and the somatic cell would fuse into the oocyte in about 10 minutes.
Injection of cumulus cells into enucleated oocytes: 15-20 enucleated oocytes were transferred to an oil-sealed TH3 working drop containing […], and the oocytes were fixed with an egg holding needle, and the polar body was placed at 12 o'clock or at 6 o'clock direction. The laser zona pellucida system was used for breaking the zona pellucida to form a narrow slit. A 10-micron oblique needle was used for aspirating the cumulus cells and transferring the cells to HVJ-E to soak for 10 seconds, then the cells were removed and injected into the 9 o'clock position of the enucleated egg cell through the zona pellucida slit, and the somatic cell would fuse into the oocyte in about 10 minutes.
In vitro activation of nuclear transfer embryos: Embryo activation can be performed 1-1.5 hours after the fusion of somatic cells and enucleated oocytes. The embryos were transferred to TH3 containing 5 μM ionomycin for 5 minutes, then transferred to HECM-9 medium containing 2 mM 6-DMAP and 10 nM TSA for 5 hours, then transferred to HECM-9 containing 10 nM TSA and cultured for 5 hours, and finally transferred to HECM-9 medium for culture.
Kdm4d mRNA injection: 5-6 hours after embryo activation, the activated embryo was transferred to an oil-sealed TH3 working drop containing 5 μg/ml CB, the embryo was fixed with an egg-holding needle, and the Piezo Micromainpulator System was used to drive a flat injection needle with a diameter of 2-3 microns to break the zona pellucida and penetrate deep into the embryo. The embryo cell membrane was broken and 1000 ng/μl of Kdm4d mRNA was injected into the embryo, and each embryo was injected about 10 pl. After the injection, the embryos were transferred to HECM-9 medium and cultured at 37° C. and 5% CO2.
Embryo culture: cloned embryos were cultured in HECM-9 medium, and then transferred to HECM-9 medium containing 5% FBS at the 8-cell stage, and the medium was changed every other day until blastocysts were appeared on day 7-8.

| Compound | effect on improving the efficiency of monkey somatic cell nuclear transfer embryos | blastocyst rate (20 injected embryos) | blastocysts obtained (number) (of 20 injected monkey somatic cell nuclear transfer embryos) | embryos developed to the blastocyst stage (blastocysts/embryos) (SCNT embryos cultured in vitro, TSA 10 nM, 10 h during and after activation) | blastocysts that had inner cell masses (out of 5 blastocysts, TSA 10 nM, 10 h) |
| --- | --- | --- | --- | --- | --- |
| Kdm5b: H3K4me3 demethylase injected into monkey somatic cell nuclear transfer embryos | no significant effect | 10% | 2 |  |  |
| CC(/C=C/C(=O)NO)=C\[C@@H](C)C(=O)c1ccc(N(C)C)cc1 [TSA, Trichostatin, reference compound] |  |  |  | 5/31 | 2 |
